# Experimental data published in patent publication US20040024033A1 (priority 1998, published 2004).
# Experiments:
# [1] = tested on: ZR-75-1 (Breast); assay: Antiproliferative assay, ZR-75-1; type: cell-based; conditions: Homo sapiens, 120 h, 5 d exposure, mean ± SD, n = 3, read-out: IC50-values for growth inhibition
# Method: (§1) Antiproliferative assays are performed as previously described (Int. J. Cancer 43, 851-6 (1989)). Briefly, cells are seeded at 1.5×10^3 cells/well into 96-well microtiter plates and incubated overnight. Compounds are added in serial dilutions on day 1. The plates are then incubated for an additional 2 to 5 days, allowing for at least one cell doubling (cell line dependent), after which the cells are fixed with 3.3% v/v glutaraldehyde, washed with water and stained with 0.05% w/v methylene blue. After washing, the dye is eluted with 3% V/V HCl and the optical density measured at 665 nm with a SpectraMax 340 (Bucherer, Basel, Switzerland). IC50 values are determined by a computerized system (SoftPro, Bucherer, Basel, Switzerland) using the formula (OD test−OD start)/(OD control−OD start)×100. IC50 is defined as the drug concentration which leads to 50% of cells per well compared to control cultures (100%) at the end of incubation period.
# [2] = tested on: HCT-15 (Colon); assay: Antiproliferative assay, HCT-15; type: cell-based; conditions: Homo sapiens, 120 h, 5 d exposure, mean ± SD, n = 3, read-out: IC50-values for growth inhibition
# Excerpt: Human colorectal adenocarcinoma cell line HCT-15 (ATCC CCL 225) is from the American Type Culture Collection (Rockville, Md., USA), and the cells are cultivated in vitro as recommended by the supplier. HCT-15 is an epithelial-like cell line (Cancer Res. 39: 1020-25 [1979]) that is multi-drug resistant by virtue of over-expression of P-glycoprotein (P-gp, gp170, MDR-1; Anticancer Res. 11: 1309-12 [1991]; J. Biol. Chem. 264: 18031-40 [1989]; Int. J. Cancer 1991; 49: 696-703 [1991]) and glutathione-dependent resistance mechanisms (Int. J. Cancer 1991; 49: 688-95.[1991]).
# as §1, with “IC50 is defined as the drug concentration which leads to 50% of cells per well compared to control cultures (100%) at the end of incubation period.” left out
# [3] = tested on: PC-3M (Prostate); assay: Antiproliferative assay, PC-3M; type: cell-based; conditions: Homo sapiens, 72 h, 3 d exposure, mean ± SD, read-out: IC50-values for growth inhibition
# Method: A human androgen-independent prostate cancer cell line is used to establish subcutaneous and orthotopic models in mice. The human metastatic prostate carcinoma PC-3M is obtained from Dr. I. J. Fidler (MD Anderson Cancer Center, Houston, Tex., USA) and is cultured in Ham's F12K media supplemented with 7% v/v FBS. The PC-3M cell line is the result of isolation from liver metastasis produced in nude mice subsequent to intrasplenic injection of PC-3 cells [ATCC CRL 1435; American Type Culture Collection (Rockville, Md., USA)], and they can grow in Eagle's MEM supplemented with 10% fetal bovine serum, sodium pyruvate, non-essential amino acids, L-glutamine, a two-fold vitamin solution (Gibco Laboratories, Long Island, N.Y.) and penicillin-streptomycin (Flow Laboratories, Rockville, Md.). The PC-3M cell line is hormone-insensitive (that is, it grows in the absence of androgens). […] No normal Y chromosomes can be detected by Q-band analysis.
# (§2) Antiproliferative assays are performed as previously described (Int. J. Cancer 43, 851-6 (1989)). […] After washing, the dye is eluted with 3% V/V HCl and the optical density measured at 665 nm with a SpectraMax 340 (Bucherer, Basel, Switzerland). IC50 values are determined by a computerized system (SoftPro, Bucherer, Basel, Switzerland) using the formula (OD test−OD start)/(OD control−OD start)×100. […]
# [4] = tested on: KB-8511 (Epidermoid, MDR); assay: Antiproliferative assay, KB-8511; type: cell-based; conditions: Homo sapiens, 48 h, 2 d exposure, mean ± SD, read-out: IC50-values for growth inhibition
# Method: The human epidermal (mouth) carcinoma cell line KB-8511 (a P-gp over-expressing cell line derived from the epidermoid (mouth) KB-31 carcinoma cell line) is obtained from Dr. R. M. Baker, Roswell Park Memorial Institute (Buffalo, N.Y., USA) (for description see Akiyama et al., Somat. Cell. Mol. Genetics 11, 117-126 (1985) and Fojo A., et al., Cancer Res. 45, 3002-3007 (1985)) and is cultured as previously described (Meyer, T., et al., Int. J. Cancer 43, 851-856 (1989)): KB-8511 cells, like KB-31, are derived from the KB cell line (ATCC) and they are human epidermal carcinoma cells; KB-31 cells can be grown in mono-layer using Dulbecco's modified Eagle's medium (D-MEM) with 10% fetal calf serum (M.A. Bioproducts), L-glutamine (Flow), penicillin (50 units/ml) and streptomycin (50 μg/ml (Flow); they then grow with a doubling time of 22 h, and their relative plating efficiency is approximately 60%.
# as §2
# [5] = tested on: human COLO 205 colon tumors; type: in vivo, female BALB/c nude mice; conditions: 75 mg/kg, i.v. every 7 days; day 32
# Method: (§3) Female or male BALB/c nu/nu (nude) mice are kept under sterile conditions (10 to 12 mice per Type III cage) with free access to food and water. Mice weigh between 20 and 25 grams at the time of tumor implantation. Tumors are established by subcutaneous injection of cells (minimum 2×10^6 cells in 100 μl PBS or medium) in carrier mice (4-8 mice per cell line). The resulting tumors are serially passaged for a minimum of three consecutive transplantations prior to start of treatment. Tumor fragments (approx. 25 mg) are implanted s.c. into the left flank of animals with a 13-gauge trocar needle while the mice are exposed to Forene (Abbott, Switzerland) anesthesia.
# (§4) Tumor growth and body weights are monitored once or twice weekly. All treatments are administered intravenously (i.v.) and are initiated when a mean tumor volume of approximately 100 to 250 mm^3 is attained, depending upon the tumor type. Tumor volumes are determined using the formula […] (see Cancer Chemother. Pharmacol. 24:148-154, [1989]). Treatments with epothilone B vary the dose and the frequency of administration. Comparator agents are administered according to previously determined optimal treatment regimens. In addition to presenting changes in tumor volumes over the course of treatment, antitumor activity is expressed as T/C% (mean increase of tumor volumes of treated animals divided by the mean increase of tumor volumes of control animals multiplied by 100). Tumor regression (%) represents the smallest mean tumor volume compared to the mean tumor volume at the start of treatment, according to the formula Regression (%)=(1−Vend/Vstart)×100 (Vend=final mean tumor volume, Vstart=mean tumor volume at the start of treatment. Any animals in which the tumor has reached a size exceeding approximately 1.5 to 2.5 cm^3 are sacrificed. Details can be found below.
# Tumor fragments of approximately 25 mg are implanted into the left flank of each female nude mouse (n=7 per group); a subcutaneous estrogen pellet is placed on the opposite flank. Treatments are started on day 14 after tumor transplantation. epothilone B is administered at 4 mg/kg, i.v., either once or once per week (days 14, 21, 28) or every second week (days 14 and 28). 5-fluorouracil is administered i.v. at 75 mg/kg on days 14, 21, 28. Data presented are from animals surviving to day 32, four days after the last treatments. Antitumor activity is expressed as T/C% (mean increase of tumor volumes of treated animals divided by the mean increase of tumor volumes of control animals multiplied by 100). Tumor regression (%) represents the final mean tumor volume compared to the mean tumor volume at the start of treatment. Changes (A) in tumor volumes represent the tumor volume on the last treatment day minus the tumor volume on the first treatment day.
# [6] = tested on: human HCT-15 colon carcinoma; type: in vivo, female BALB/c nude mice
# Method: as §3, §4
# Tumor fragments of approximately 25 mg are implanted into the left flank of each female nude mouse (n=8 per group). Treatments are started on day 14 after tumor transplantation. Epothilone B is administered once at 4 mg/kg, i.v. on day 14.5-Fluorouracil is administered at 75 mg/kg, i.v., on days 14 and 21. TAXOL® is administered i.v. at 20 mg/kg/day, every second day for 5 treatments (days 14, 16, 18, 20 and 22). Antitumor activity is expressed as T/C% (mean increase of tumor volumes of treated animals divided by the mean increase of tumor volumes of control animals multiplied by 100). Tumor regression (%) represents the final mean tumor volume compares to the mean tumor volume at the start of treatment. Δ Tumor volumes represent the tumor volume on the last treatment day minus the tumor volume on the first treatment day. Statistical analyses on Δ tumor volumes uses Dunnett's test to compare treatment groups to controls. Statistical analyses on body weight changes uses paired t-tests comparing body weights before treatment to those at the end of treatment; mice weigh ˜20-25 g at the start of treatment. Not significant is indicated by the abbreviation ,ns”. Data presented are means±SEM from animals surviving to the end of the experiment.
IC50 [2],IC50 [3],IC50 [4],SMILES,IC50 [1],T/C [5],"% Body Weight Change ([6]; 75 mg/kg, i.v., on days 14 and 21)","D Body Weight ([6]; 75 mg/kg, i.v., on days 14 and 21, mean ± SEM)",Mortalities (deaths) ([6]; two 75 mg/kg administrations)
0.106 ± 0.054 µM,0.00674 µM,0.994 µM,CC(=O)O[C@H]1C(=O)[C@@]2(C)[C@H]([C@H](OC(=O)c3ccccc3)[C@]3(O)C[C@H](OC(=O)[C@H](O)[C@@H](NC(=O)c4ccccc4)c4ccccc4)C(C)=C1C3(C)C)[C@]1(OC(C)=O)CO[C@@H]1C[C@@H]2O [paclitaxel],0.0036 ± 0.00187 µM,,,,
,,,"O=c1[nH]cc(F)c(=O)[nH]1 [5-fluorouracil, reference compound]",,18%,9 ± 4%,2.0 ± 0.7 g,50%
